In ChEMBL document CHEMBL1201862, “PubChem BioAssay data set” (2004):
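Grown in 96-well plates, cells were treated for 48 hours with each compound at five concentrations. Insufficient inhibition: endpoint recorded as highest concentration tested. The concentration for 50% growth inhibition is given as GI50.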 The source made the active and inactive calls. Cut-off read from the data, not from the text of the source: active = GI50 up to about 1.1 µM and inactive = higher.

Assays:
Experiment in all cases: inhibition of tumour cell growth, NCI panel, 48 h
A549 = test system: A549
IGROV-1 = test system: IGROV-1
SN12C = test system: SN12C
Malme-3M = test system: Malme-3M
786-0 = test system: 786-0
NCI-H226 = test system: NCI-H226
HOP-18 = test system: HOP-18
OVCAR-8 = test system: OVCAR-8
HCT-15 = test system: HCT-15
CCRF-CEM = test system: CCRF-CEM
NCI-H522 = test system: NCI-H522
HL-60 = test system: HL-60
MOLT-4 = test system: MOLT-4
K562 = test system: K562
LXFL 529 = test system: LXFL 529
DMS-114 = test system: DMS-114
ACHN = test system: ACHN
TK-10 = test system: TK-10
LOX IMVI = test system: LOX IMVI
HT-29 = test system: HT-29
SK-MEL-5 = test system: SK-MEL-5
UO-31 = test system: UO-31
HOP-62 = test system: HOP-62
U-251 = test system: U-251
UACC-62 = test system: UACC-62
SK-OV-3 = test system: SK-OV-3
COLO 205 = test system: COLO 205
UACC-257 = test system: UACC-257
RPMI-8226 = test system: RPMI-8226
NCI-H23 = test system: NCI-H23
SR = test system: SR
A498 = test system: A498
DLD-1 = test system: DLD-1
HOP-92 = test system: HOP-92
EKVX = test system: EKVX
KM12 = test system: KM12
SF-295 = test system: SF-295
M14 = test system: M14
RXF 631 = test system: RXF 631
CAKI-1 = test system: CAKI-1
OVCAR-5 = test system: OVCAR-5
KM-20L2 = test system: KM-20L2
M19-MEL = test system: M19-MEL
SW-620 = test system: SW-620
HCC 2998 = test system: HCC 2998
SF-268 = test system: SF-268
RXF 393 = test system: RXF 393
NCI-H460 = test system: NCI-H460
SNB-19 = test system: SNB-19
OVCAR-3 = test system: OVCAR-3
SF-539 = test system: SF-539
OVCAR-4 = test system: OVCAR-4
SNB-75 = test system: SNB-75
HCT-116 = test system: HCT-116
XF498 = test system: XF498

CC1(C)CCc2cc3c(cc2O1)OCCC3=O
GI50 (A549): > 100 µM (inactive) | GI50 (IGROV-1): > 100 µM (inactive) | GI50 (SN12C): > 100 µM (inactive) | GI50 (Malme-3M): > 100 µM (inactive) | GI50 (786-0): > 100 µM (inactive) | GI50 (NCI-H226): > 100 µM (inactive) | GI50 (HOP-18): > 100 µM (inactive) | GI50 (OVCAR-8): > 100 µM (inactive) | GI50 (HCT-15): > 100 µM | GI50 (CCRF-CEM): > 100 µM (inactive) | GI50 (NCI-H522): > 100 µM (inactive) | GI50 (HL-60): 95.1 µM (inactive) | GI50 (MOLT-4): > 100 µM (inactive) | GI50 (K562): > 100 µM (inactive) | GI50 (LXFL 529): > 100 µM (inactive) | GI50 (DMS-114): 70 µM (inactive) | GI50 (ACHN): > 100 µM (inactive) | GI50 (TK-10): > 100 µM (inactive) | GI50 (LOX IMVI): > 100 µM (inactive) | GI50 (HT-29): > 100 µM (inactive) | GI50 (SK-MEL-5): > 100 µM (inactive) | GI50 (UO-31): 94.2 µM (inactive) | GI50 (HOP-62): > 100 µM (inactive) | GI50 (U-251): > 100 µM (inactive) | GI50 (UACC-62): > 100 µM (inactive) | GI50 (SK-OV-3): > 100 µM (inactive) | GI50 (COLO 205): > 100 µM (inactive) | GI50 (UACC-257): > 100 µM (inactive) | GI50 (RPMI-8226): 96.2 µM (inactive) | GI50 (NCI-H23): > 100 µM (inactive) | GI50 (SR): 58.1 µM (inactive) | GI50 (A498): > 100 µM (inactive) | GI50 (DLD-1): > 100 µM (inactive) | GI50 (HOP-92): > 100 µM (inactive) | GI50 (EKVX): > 100 µM (inactive) | GI50 (KM12): > 100 µM (inactive) | GI50 (SF-295): > 100 µM (inactive) | GI50 (M14): > 100 µM (inactive) | GI50 (RXF 631): > 100 µM (inactive) | GI50 (CAKI-1): 92.7 µM (inactive) | GI50 (OVCAR-5): > 100 µM (inactive) | GI50 (KM-20L2): > 100 µM (inactive) | GI50 (M19-MEL): > 100 µM (inactive) | GI50 (SW-620): > 100 µM (inactive) | GI50 (HCC 2998): > 100 µM (inactive) | GI50 (SF-268): > 100 µM (inactive) | GI50 (RXF 393): > 100 µM (inactive) | GI50 (NCI-H460): > 100 µM (inactive) | GI50 (SNB-19): > 100 µM (inactive) | GI50 (OVCAR-3): > 100 µM (inactive) | GI50 (SF-539): > 100 µM (inactive) | GI50 (OVCAR-4): > 100 µM (inactive) | GI50 (SNB-75): > 100 µM (inactive) | GI50 (HCT-116): > 100 µM (inactive) | GI50 (XF498): > 100 µM (inactive)
